Laboratory results taken from article PMC6277767, “Broad and Region-Specific Impacts of the Synthetic Cannabinoid CP 55,940 in Adolescent and Adult Female Mouse Brains” (Frontiers in Molecular Neuroscience, 2018).

Test system: CD1 female mouse brain lipidome
Experiment: Brain-region lipid levels (HPLC/MS/MS lipidomics) 2 h after single i.p. 3 mg/kg CP 55,940 vs vehicle
Assay type: in vivo
Parameters: N-arachidonoyl phenylalanine level, Mean / N-stearoyl tryptophan level, Mean / N-stearoyl proline level, Mean / N-stearoyl leucine level, Mean / N-stearoyl phenylalanine level, Mean / N-stearoyl serine level, Mean / N-stearoyl methionine level, Mean: unit: moles per gram
Conditions: midbrain
Method: The Bloomington Institutional Animal Care and Use Committee of Indiana University reviewed and approved the animal procedures. Female mice from the CD1 strain were utilized to match our study examining THC’s effects on the brain lipidome ([Leishman et al., 2018]). Mice were given a single i.p. injection of either 3 mg/kg CP or 1:1:18 cremophor:ethanol:saline vehicle (please refer to the section “3 mg/kg CP Is Relevant for Synthetic Cannabinoid Abuse and Has Stronger Effects on the Female Mouse Brain Lipidome During Adolescence” for a justification of dose and use of female mice). Three different age groups were given injections: PND 35 and PND 50 adolescents, and adult mice (PND 113). At least eight mice in each age group received CP and at least eight received vehicle. Matching the THC study time course ([Leishman et al., 2018]), mice were sacrificed via rapid decapitation 2 h after injection. Brains were immediately removed and flash-frozen in liquid nitrogen, and then stored at -80°C until dissections were performed. Brains were dissected on an ice-cold dissection plate into the following regions: STR, HIPP, CER, THAL, CTX, HYP, MID, and STEM. These abbreviations for these brain areas will be used exclusively when discussing the results generated by these specific dissections. Each dissected area was immediately placed in liquid nitrogen and then stored at -80°C until used for lipid extraction.
Tissue extracts were performed as previously described ([Bradshaw et al., 2006]; [Stuart et al., 2013]; [Raboune et al., 2014]; [Leishman et al., 2016a],[b], [2017], [2018]). First, samples were shock frozen in liquid nitrogen, weighed, and transferred to a centrifuge tube. The mass of the largest sample was multiplied by 50 to determine how many milliliters of HPLC-grade methanol (Fisher, Fair Lawn, NJ, United States) to add. Then, samples were spiked with 500 pmol deuterium-labeled NAGly (d8NAGly; Cayman Chemical, Ann Arbor, MI, United States). Samples were placed on ice in darkness for 2 h then individually homogenized and centrifuged at 19,000 × g for 20 min at 20°C. Supernatants were diluted with HPLC water (purified in house) to make a solution of 75% water, 25% supernatant. Lipids were partially purified on C18 solid phase extraction columns (Agilent, Palo Alto, CA, United States). A series of four elutions with 1.5 mL of 60%, 75%, 85%, and 100% methanol were collected ([Stuart et al., 2013]; [Leishman et al., 2016a],[b], [2018]).
As previously described ([Bradshaw et al., 2006]; [Tan et al., 2006]; [Smoum et al., 2010]; [Stuart et al., 2013]; [Tortoriello et al., 2013]; [Raboune et al., 2014]; [Leishman et al., 2016a],[b], [2017], [2018]), samples were analyzed using an Applied Biosystems API 3000 triple quadrupole mass spectrometer with electrospray ionization (Foster City, CA, United States). Using an Agilent XDB-C18 reversed phase analytical column and optimized mobile phase gradients, 20 μL from each elution were chromatographed. Two Shimadzu 10ADvp pumps (Columbia, MD, United States) provided the pressure for gradient elution. Mobile phase A: 20% methanol, 80% water (v/v) and 1 mM ammonium acetate (Sigma, St. Louis, MO, United States). Mobile phase B: 100% methanol, 1 mM ammonium acetate. Every method run began with 0% mobile phase B, reached 100% mobile phase B flowing at 0.2 mL/min, and gradually returned to 0% mobile phase B.
This screening library will be referred to as the lipidome when discussing data from this study. HPLC/MS/MS data were analyzed using Analyst software (Applied Biosystems) ([Bradshaw et al., 2006]; [Tan et al., 2006]; [Stuart et al., 2013]; [Tortoriello et al., 2013]; [Raboune et al., 2014]; [Leishman et al., 2016a],[b], [2017], [2018]). Chromatograms (Supplementary Figure 3) were generated by determining the retention time of analytes from the analytical column with a [M-1] or [M+1] parent peak and a fragmentation peak corresponding to the programmed values. […]

[1] = PND 50 female mice, 3mg/kg CP 55,940

SMILES: CCCCCCC(C)(C)c1ccc([C@@H]2C[C@H](O)CC[C@H]2CCCO)c(O)c1 [CP 55,940]
- N-stearoyl methionine, Magnitude (x Veh level) (PND 50, 3mg/kg CP 55,940, ANOVA p .042): 0.78 x Veh level
- N-palmitoyl serine, Magnitude (x Veh level) (PND 50, 3mg/kg CP 55,940, ANOVA p .048): 0.84 x Veh level
- N-arachidonoyl alanine Magnitude (x Veh level) (PND 50, 3mg/kg CP 55,940, ANOVA p .057): 0.62 x Veh level
- N-docosahexaenoyl leucine Magnitude (x Veh level) (PND 50, 3mg/kg CP 55,940, ANOVA p .063): 1.47 x Veh level
- 2-oleoyl glycerol, Magnitude (x Veh level) (PND 50, 3mg/kg CP 55,940, ANOVA p .073): 0.89 x Veh level
- N-stearoyl phenylalanine, Magnitude (x Veh level) (PND 50, 3mg/kg CP 55,940, ANOVA p .077): 0.85 x Veh level
- N-palmitoyl alanine, Magnitude (x Veh level) (PND 50, 3mg/kg CP 55,940, ANOVA p .081): 0.77 x Veh level
- 6-ketoPGF1α Magnitude (x Veh level) (PND 50, 3mg/kg CP 55,940, ANOVA p .089): 0.75 x Veh level
- 2-arachidonoyl glycerol level, Mean [1]: 3.27E-10
- 2-linoleoyl glycerol level, Mean [1]: 3.73E-10
- 2-oleoyl glycerol level, Mean [1]: 4.95E-09
- 2-palmitoyl glycerol level, Mean [1]: 3.34E-09
- 6-ketoPGF1α level, Mean [1]: 1.22E-11
- 11-OH-THC level, Mean [1]: BDL
- 11-nor-9-carboxyTHC level, Mean [1]: BDL
- Arachidonic acid level, Mean [1]: 3.1E-10
- Cannabidiol level, Mean [1]: BDL
- Linoleic acid level, Mean [1]: 2.67E-10
- N- stearoyl valine level, Mean [1]: 9.43E-14
- N-arachidonoyl GABA level, Mean [1]: 1.55E-11
- N-arachidonoyl alanine level, Mean [1]: 9.08E-14
- N-arachidonoyl dopamine level, Mean [1]: BDL
- N-arachidonoyl ethanolamine level, Mean [1]: 3.81E-11
- N-arachidonoyl glycine level, Mean [1]: 4.39E-12
- N-arachidonoyl methionine level, Mean [1]: 1.8E-13
- N-arachidonoyl phenylalanine level, Mean [1]: 5.45E-13
- N-arachidonoyl proline level, Mean [1]: BDL
- N-arachidonoyl serine level, Mean [1]: 7.6E-12
- N-arachidonoyl taurine level, Mean [1]: 1.38E-11
- N-arachidonoyl tryptophan level, Mean [1]: BDL
- N-arachidonoyl tyrosine level, Mean [1]: 3.91E-13
- N-docosahexaenoyl GABA level, Mean [1]: 1.45E-12
- N-docosahexaenoyl alanine level, Mean [1]: PISSR
- N-docosahexaenoyl ethanolamine level, Mean [1]: 5.23E-11
- N-docosahexaenoyl glycine level, Mean [1]: 5.53E-13
- N-docosahexaenoyl leucine level, Mean [1]: 1.28E-13
- N-docosahexaenoyl methionine level, Mean [1]: BDL
- N-docosahexaenoyl phenylalanine level, Mean [1]: 6.24E-13
- N-docosahexaenoyl proline level, Mean [1]: BDL
- N-docosahexaenoyl serine level, Mean [1]: 1.85E-11
- N-docosahexaenoyl tryptophan level, Mean [1]: BDL
- N-docosahexaenoyl tyrosine level, Mean [1]: 5.71E-13
- N-docosahexaenoyl valine level, Mean [1]: PISSR
- N-linoleoyl GABA level, Mean [1]: 1.04E-12
- N-linoleoyl alanine level, Mean [1]: PISSR
- N-linoleoyl ethanolamine level, Mean [1]: 5.21E-11
- N-linoleoyl glycine level, Mean [1]: 2.23E-13
- N-linoleoyl leucine level, Mean [1]: 3.86E-14
- N-linoleoyl methionine level, Mean [1]: BDL
- N-linoleoyl phenylalanine level, Mean [1]: 1.31E-13
- N-linoleoyl proline level, Mean [1]: BDL
